Source: Sander's compilation of Henry's law constants (doi:10.1063/1.555654)

Assay: Henry solubility constant Hcp at 298.15 K (mol/(m3 Pa))
Details: reference: Mackay and Shiu (1981)

Row | Structure (SMILES) | Henry solubility constant Hcp
1 | Cc1cccc2ccccc12 [1-methylnaphthalene] | 0.038
2 | c1cc2c3c(cccc3c1)CC2 [acenaphthene] | 0.0064
3 | Clc1ccccc1 [chlorobenzene] | 0.0032
4 | c1ccc2c(c1)Cc1ccccc1-2 [2,3-benzindene] | 0.099
5 | Clc1ccc2ccccc2c1 [2-chloronaphthalene] | 0.031
6 | Clc1cccc2ccccc12 [1-chloronaphthalene] | 0.0028
7 | Clc1ccc(Cl)cc1 [1,4-dichlorobenzene] | 0.0042
8 | Clc1cccc(Cl)c1Cl [1,2,3-trichlorobenzene] | 0.0079
9 | Clc1cc(Cl)c(Cl)c(Cl)c1 [1,2,3,5-tetrachlorobenzene] | 0.0063
10 | c1ccc2c(c1)ccc1ccccc12 [phenanthrene] | 0.27
11 | c1ccc(-c2ccccc2)cc1 [biphenyl] | 0.033
12 | c1ccc2cc3ccccc3cc2c1 [anthracene] | 0.014
13 | Brc1ccccc1 [bromobenzene] | 0.004
